Results reported in ChEMBL document CHEMBL1154563, “Flavonol-cinnamate cycloadducts and diamide derivatives from Aglaia laxiflora” (J Nat Prod, 2000).
Converted amounts (≈) assume the structure as drawn. The source made the active and inactive calls. The rule behind the calls is not given here.

Tests used:
P388 = assay: Cytotoxicity against mouse P388 cells; assay type: functional, cell-based
MOLT-4 = assay: Cytotoxicity against human MOLT4 cells; assay type: functional, cell-based
[1] = Cytotoxicity against mouse LL/2 cells; assay type: functional, cell-based, Lewis lung carcinoma
WEHI-164 = assay: Cytotoxicity against mouse WEHI164 cells; assay type: functional, cell-based
Jurkat = assay: Cytotoxicity against human Jurkat cells; assay type: functional, cell-based

CC[C@@](C)(O)C(=O)N[C@@H]1CCCN1C(=O)[C@@H]1[C@@H](c2ccccc2)[C@@]2(O)c3c(OC)cc(OC)cc3O[C@]1(c1ccc(OC)cc1)[C@H]2O
Activity (P388): inactive
Activity (MOLT-4): inactive

COc1ccc([C@@]23Oc4cc(OC)cc(OC)c4[C@]2(O)[C@H](O)C[C@H]3c2ccccc2)cc1 [ROCAGLAOL]
IC50 ([1]; Mus musculus, Lewis lung carcinoma, read-out: IC50): 0.034 µg/mL (≈ 0.0783 µM)
IC50 (P388; Mus musculus, P388, read-out: IC50): < 0.01 µg/mL
IC50 (WEHI-164): 0.023 µg/mL (≈ 0.0529 µM)

COc1cc(OC)c2c(c1)O[C@@]1(c3ccc(OC)c(O[C@@H]4O[C@H](C)[C@@H](O)[C@H](OC)[C@@H]4OC(C)=O)c3)[C@H](c3ccccc3)C[C@@H](O)[C@@]21O
IC50 ([1]; lewis lung carcinoma): 0.0042 µg/mL (≈ 0.00643 µM)
IC50 (P388; p388): 0.036 µg/mL (≈ 0.0552 µM)
IC50 (Jurkat): 0.0022 µg/mL (≈ 0.00337 µM)

CC[C@@](C)(O)C(=O)N[C@@H]1CCCN1C(=O)[C@@H]1[C@@H](c2ccccc2)[C@]2(c3ccc(OC)cc3)Oc3cc(OC)cc(OC)c3[C@@]1(O)[C@H]2OC(C)=O
Activity (P388): inactive
Activity (MOLT-4): inactive

CC[C@@](C)(O)C(=O)N[C@@H]1CCCN1C(=O)[C@H]1[C@H](c2ccccc2)[C@]2(c3ccc(OC)cc3)Oc3cc(OC)cc(OC)c3[C@@]1(O)[C@H]2OC(C)=O
Activity (P388): inactive
Activity (MOLT-4): inactive

CC[C@@](C)(O)C(=O)N[C@@H]1CCCN1C(=O)[C@@H]1[C@@H](c2ccccc2)[C@@]2(O)c3c(OC)cc(OC)cc3O[C@]1(c1ccc(OC)cc1)[C@H]2OC(C)=O
Activity (P388): inactive
Activity (MOLT-4): inactive
